Results: patent US12180195B1, “6-(6-bromo-2-oxo-2H-chromen-3-yl)-4-(2,4-dichlorophenyl)-2-alkoxynicotinonitrile as an antimicrobial compound” (KING FAISAL UNIVERSITY, priority 2023, dated 2024)

Columns and labels:
Assay type in all cases: cell-based
[1] = system: Chrysosporium keratinophilum; assay: Agar plate disc-diffusion, antifungal inhibition zone; conditions: Sabouraud's dextrose agar, 72 hours, DMSO zone subtracted
Description: (§1) The agar plate disc-diffusion method was applied. Sterilized filter papers (6 mm in diameter) were wetted with 10 μL of a solution of compounds 6-(6-bromo-2-oxo-2H-chromen-3-yl)-4-(2,4-dichlorophenyl)-2-ethoxynicotinonitrile 1 or 6-(6-bromo-2-oxo-2H-chromen-3-yl)-4-(2,4-dichlorophenyl)-2-methoxynicotinonitrile 2 to be tested, containing […], and the discs were allowed to air dry. The discs were then placed onto the surface of agar plates (nutrient agar for bacteria and Sabouraud's dextrose agar for fungi) seeded with the test organism. Each plate contained 15 mL of the agar medium, previously seeded with 0.2 mL of the broth culture of each organism pregrown for 18 hours. The plates were incubated at 37° C. for 48 hours, and 72 hours for fungi. The inhibition zones were measured in mm. Discs impregnated with DMSO were used as a control, and its inhibition zone was subtracted from the tested compound actual inhibition zone.
(§2) The results of the antimicrobial testing can be observed in Tables 1 and 2, below, using ciprofloxacin as a reference.

Aspergillus flavus = assay: as above; conditions: Sabouraud's dextrose agar, 72 hours, DMSO zone subtracted
Description: as §1, §2

Staphylococcus aureus = assay: Agar plate disc-diffusion, antibacterial inhibition zone; conditions: nutrient agar, 37° C., 48 hours, DMSO zone subtracted
Description: as §1, §2

Bacillus Cereus = assay: as above; conditions: nutrient agar, 37° C., 48 hours, DMSO zone subtracted
Description: as §1, §2

Pseudomonas aeruginosa = assay: as above; conditions: nutrient agar, 37° C., 48 hours, DMSO zone subtracted
Description: as §1, §2

Escherichia coli = assay: as above; conditions: nutrient agar, 37° C., 48 hours, DMSO zone subtracted
Description: as §1, §2

different microbes = assay: Antimicrobial testing, overall statement in words; conditions: summary of Tables 1 and 2, bacteria and fungi
Description: as §1
Their antibacterial activity was screened against gram positive bacteria namely Bacillus cereus and Staphylococcus aureus and gram-negative bacterial strains namely Pseudomonas aeruginosa and Escherichia coli, while their antifungal activity was screened against Aspergillus flavus and Chrysosporium keratinophilum.

[2] = A = concentration of comp. = 10,000 μL
[3] = B = concentration of comp. = 30,000 μL
[4] = C = concentration of comp. = 50,000 μL

SMILES | inhibition zone [1, 2] [mm] | inhibition zone [1, 3] [mm] | inhibition zone [1, 4] [mm] | inhibition zone (Aspergillus flavus; [2]) [mm] | inhibition zone (Aspergillus flavus; [3]) [mm] | inhibition zone (Aspergillus flavus; [4]) [mm] | inhibition zone (Staphylococcus aureus; [2]) [mm] | inhibition zone (Staphylococcus aureus; [3]) [mm] | inhibition zone (Staphylococcus aureus; [4]) [mm] | inhibition zone (Bacillus Cereus; [2]) [mm] | inhibition zone (Bacillus Cereus; [3]) [mm] | inhibition zone (Bacillus Cereus; [4]) [mm] | inhibition zone (Pseudomonas aeruginosa; [2]) [mm] | inhibition zone (Pseudomonas aeruginosa; [3]) [mm] | inhibition zone (Pseudomonas aeruginosa; [4]) [mm] | inhibition zone (Escherichia coli; [2]) [mm] | inhibition zone (Escherichia coli; [3]) [mm] | inhibition zone (Escherichia coli; [4]) [mm] | antimicrobial activity (in words) (different microbes)
O=C(O)c1cn(C2CC2)c2cc(N3CCNCC3)c(F)cc2c1=O [Cip., ciprofloxacin, reference compound] | 29 | 30 | 53 | 29 | 30 | 42 | 43 | 44 | 53 | 29 | 30 | 42 | 29 | 30 | 53 | 30 | 39 | 60 | 
CCOc1nc(-c2cc3cc(Br)ccc3oc2=O)cc(-c2ccc(Cl)cc2Cl)c1C#N [Compound 1, 6-(6-bromo-2-oxo-2H-chromen-3-yl)-4-(2,4-dichlorophenyl)-2-ethoxynicotinonitrile] | 22 | 33 | 39 | 26 | 28 | 39 | 13 | 20 | 27 | 26 | 27 | 38 | 24 | 31 | 42 | 30 | 38 | 54 | high antimicrobial activities
COc1nc(-c2cc3cc(Br)ccc3oc2=O)cc(-c2ccc(Cl)cc2Cl)c1C#N [Compound 2, 6-(6-bromo-2-oxo-2H-chromen-3-yl)-4-(2,4-dichlorophenyl)-2-methoxynicotinonitrile] | 28 | 29 | 46 | 17 | 21 | 29 | 14 | 21 | 25 | 27 | 28 | 40 | 24 | 27 | 42 | 28 | 37 | 49 | high antimicrobial activities
